Experimental findings from ChEMBL document CHEMBL4421728, “Bach1 Inhibitors in Combination with Nrf2 Activators and Pharmaceutical Compositions Thereof” (2017) are described below.

Structures are written as SMILES.

Experiment [1] has as its target T1, Transcription regulator protein BACH1 (Homo sapiens) (UniProt O14867).
T1 sequence (whole entry): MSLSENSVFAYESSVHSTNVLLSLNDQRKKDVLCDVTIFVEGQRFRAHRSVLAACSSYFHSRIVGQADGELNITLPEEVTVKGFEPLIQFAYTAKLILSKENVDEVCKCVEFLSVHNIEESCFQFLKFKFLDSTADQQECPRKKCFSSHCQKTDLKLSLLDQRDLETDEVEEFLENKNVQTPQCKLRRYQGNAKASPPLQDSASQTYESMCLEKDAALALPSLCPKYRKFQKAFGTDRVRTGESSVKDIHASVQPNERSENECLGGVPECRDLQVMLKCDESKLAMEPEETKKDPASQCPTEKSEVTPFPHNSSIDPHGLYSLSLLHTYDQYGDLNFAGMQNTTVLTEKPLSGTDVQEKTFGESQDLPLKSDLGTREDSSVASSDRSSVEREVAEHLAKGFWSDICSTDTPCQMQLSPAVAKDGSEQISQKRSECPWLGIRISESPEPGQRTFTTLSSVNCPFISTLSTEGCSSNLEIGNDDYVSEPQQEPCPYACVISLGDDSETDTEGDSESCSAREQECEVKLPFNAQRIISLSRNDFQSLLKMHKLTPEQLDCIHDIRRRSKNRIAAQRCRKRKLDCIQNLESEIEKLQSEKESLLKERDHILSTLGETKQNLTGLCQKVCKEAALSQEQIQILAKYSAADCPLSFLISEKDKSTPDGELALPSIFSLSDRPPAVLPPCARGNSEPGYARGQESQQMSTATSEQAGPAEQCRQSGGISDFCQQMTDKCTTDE
Nature of the experiment: Inhibition of Bach1 in normal human lung fibroblasts assessed as induction of HMOX protein expression at 0.078 uM incubated for 16 to 18 hrs in presence of 0.019 uM Nrf2 activator Bardoxolone methyl by immunostaining relative to control.

Experiment [2] deals with T1, Transcription regulator protein BACH1 (Homo sapiens). Put plainly: Inhibition of Bach1 in normal human lung fibroblasts assessed as induction of HMOX protein expression at 0.019 uM incubated for 16 to 18 hrs in presence of 0.0048 uM Nrf2 activator Bardoxolone methyl by immunostaining relative to control.
Experiment [3] shares this target. Put plainly: Inhibition of Bach1 in normal human lung fibroblasts assessed as induction of HMOX protein expression at 0.312 uM incubated for 16 to 18 hrs in presence of 0.0048 uM Nrf2 activator Bardoxolone methyl by immunostaining relative to control.
Experiment [4] shares this target. Put plainly: Inhibition of Bach1 in normal human lung fibroblasts assessed as induction of HMOX protein expression at 0.019 uM incubated for 16 to 18 hrs in presence of 0.156 uM Nrf2 activator Bardoxolone methyl by immunostaining relative to control.
Experiment [5] shares this target. Put plainly: Inhibition of Bach1 in normal human lung fibroblasts assessed as induction of HMOX protein expression at 0.312 uM incubated for 16 to 18 hrs in presence of 0.156 uM Nrf2 activator Bardoxolone methyl by immunostaining relative to control.
For experiment [6] the target is unchanged. Put plainly: Inhibition of Bach1 in normal human lung fibroblasts assessed as induction of HMOX protein expression at 0.156 uM incubated for 16 to 18 hrs in presence of 0.078 uM Nrf2 activator Bardoxolone methyl by immunostaining relative to control.
The target is the same in experiment [7]. Nature of the experiment: Inhibition of Bach1 in normal human lung fibroblasts assessed as induction of HMOX protein expression at 0.156 uM incubated for 16 to 18 hrs in presence of 0.0097 uM Nrf2 activator Bardoxolone methyl by immunostaining relative to control.
For experiment [8] the target is unchanged. Put plainly: Inhibition of Bach1 in normal human lung fibroblasts assessed as induction of HMOX protein expression at 0.078 uM incubated for 16 to 18 hrs in presence of 0.078 uM Nrf2 activator Bardoxolone methyl by immunostaining relative to control.
For experiment [9] the target is unchanged. Put plainly: Inhibition of Bach1 in normal human lung fibroblasts assessed as induction of HMOX protein expression at 2.5 uM incubated for 16 to 18 hrs in presence of 0.039 uM Nrf2 activator Bardoxolone methyl by immunostaining relative to control.
Experiment [10] has the same target. Nature of the experiment: Inhibition of Bach1 in normal human lung fibroblasts assessed as induction of HMOX protein expression at 0.078 uM incubated for 16 to 18 hrs in presence of 0.156 uM Nrf2 activator Bardoxolone methyl by immunostaining relative to control.
For experiment [11] the target is unchanged. Nature of the experiment: Inhibition of Bach1 in normal human lung fibroblasts assessed as induction of HMOX protein expression at 1.25 uM incubated for 16 to 18 hrs in presence of 0.0048 uM Nrf2 activator Bardoxolone methyl by immunostaining relative to control.
Experiment [12] has the same target. Put plainly: Inhibition of Bach1 in normal human lung fibroblasts assessed as induction of HMOX protein expression at 0.156 uM incubated for 16 to 18 hrs in presence of 0.019 uM Nrf2 activator Bardoxolone methyl by immunostaining relative to control.
The target is the same in experiment [13]. Nature of the experiment: Inhibition of Bach1 in normal human lung fibroblasts assessed as induction of HMOX protein expression at 2.5 uM incubated for 16 to 18 hrs in presence of 0.019 uM Nrf2 activator Bardoxolone methyl by immunostaining relative to control.
The target is the same in experiment [14]. Nature of the experiment: Inhibition of Bach1 in normal human lung fibroblasts assessed as induction of HMOX protein expression at 0.156 uM incubated for 16 to 18 hrs in presence of 0.039 uM Nrf2 activator Bardoxolone methyl by immunostaining relative to control.
The target is the same in experiment [15]. Nature of the experiment: Inhibition of Bach1 in normal human lung fibroblasts assessed as induction of HMOX protein expression at 0.625 uM incubated for 16 to 18 hrs in presence of 0.019 uM Nrf2 activator Bardoxolone methyl by immunostaining relative to control.
Experiment [16] has the same target. Nature of the experiment: Inhibition of Bach1 in normal human lung fibroblasts assessed as induction of HMOX protein expression at 0.039 uM incubated for 16 to 18 hrs in presence of 0.078 uM Nrf2 activator Bardoxolone methyl by immunostaining relative to control.
The target is the same in experiment [17]. Nature of the experiment: Inhibition of Bach1 in normal human lung fibroblasts assessed as induction of HMOX protein expression at 1.25 uM incubated for 16 to 18 hrs in presence of 0.039 uM Nrf2 activator Bardoxolone methyl by immunostaining relative to control.
Experiment [18] has the same target. Nature of the experiment: Inhibition of Bach1 in normal human lung fibroblasts assessed as induction of HMOX protein expression at 0.039 uM incubated for 16 to 18 hrs in presence of 0.019 uM Nrf2 activator Bardoxolone methyl by immunostaining relative to control.
For experiment [19] the target is unchanged. Nature of the experiment: Inhibition of Bach1 in normal human lung fibroblasts assessed as induction of HMOX protein expression at 1.25 uM incubated for 16 to 18 hrs in presence of 0.156 uM Nrf2 activator Bardoxolone methyl by immunostaining relative to control.
Experiment [20] shares this target. Put plainly: Inhibition of Bach1 in normal human lung fibroblasts assessed as induction of HMOX protein expression at 0.078 uM incubated for 16 to 18 hrs in presence of 0.0097 uM Nrf2 activator Bardoxolone methyl by immunostaining relative to control.

On to `CNC(=O)c1ccc2c(c1)nc(Nc1nc3ccc(OC(F)(F)F)cc3s1)n2C`, for which the fold change (FC) in experiment [1] stood at 13.2; in experiment [2], 2.88; in [3] it was 13.6; in experiment [4], 22.9; in experiment [5], 19.2; in experiment [6], 18.4. Further, the fold change (FC) in experiment [7] is 12.1; in experiment [8] it was 19.5; in experiment [9] it was 14.7; in experiment [10], 17.9; in experiment [11], 17.3; in [12], 15.9. The fold change (FC) in [13] is 17; in [14], 17.6; in experiment [15], 16.8; in [16] it was 18.7; in experiment [17] it was 15.6; in experiment [18] it was 8.57. Moreover, the fold change (FC) in experiment [19] was 16.6; in [20], 8.43.
